Source: patent US8835425B2, “Use of selective GABA A α5 negative allosteric modulators for the treatment of central nervous system conditions” (Hoffmann-La Roche Inc., priority 2010, dated 2014)

Legend:
Control mice (B16;129F1) = test: Contextual fear conditioning; format: in vivo
Procedure: Control mice (B16;129F1) were trained with a contextual fear-conditioning protocol using either one trial per day for one day (FIG. 20) or two consecutive days (FIG. 21). On the training day, 30 minutes after i.p. injection of 8581 or vehicle, mice were placed in training chamber. A foot shock (1 s, 0.4 mA) was delivered 40 s after placement. Conditioned response (percentage freezing time of the mice) was recorded 24 h after training by using automated procedures. Average freezing levels during the first 30 s of each training day and 24 hr after the last training trial were plotted.

[1] = tested on: hippocampus of TS and CO mice; test: Hippocampal neurogenesis, granule cell density and GAD+ boutons after chronic treatment; format: in vivo
Source text: Alterations in hippocampal morphology such as reductions in granule cell density and hippocampal neurogenesis have also been implicated in the learning deficits shown by Ts65Dn mice. Spatial learning is known to depend on the functional integrity of the hippocampus, a structure that plays a key role in information encoding and retrieving in the CNS. […] Also, neuronal survival of the cells that have undergone maturation was also normalized in TS mice, as shown by the increase in DAPI+ cells found in TS mice after chronic 8581 administration (p=0.026; FIG. 14).

[2] = tested on: Nf1+/− mice and control mice (B16;129F1); test: Rotarod, accelerating speeds, Nf1+/− and control mice; format: in vivo; conditions: Nf1+/− mutant or control mice, 1 mg/kg i.p.
Procedure: Control mice (B16;129F1) and Nf1+/− mice were treated with vehicle or with 8581 (n=10 for each of the 4 groups). 30 minutes after i.p. injection of 8581 (1 mg/kg) or vehicle, mice were tested with a rotarod protocol using accelerating speeds (4-40 rpm, maximal duration 300 s) for four trials with 30 min intertrial interval. FIG. 22 visualizes performance of control mice in the Rotarod and FIG. 23 illustrates the performance of Nf1+/− mice in the Rotarod.

Nf1+/− mice = test: Spatial learning of Nf1+/− mice in the Morris water maze; format: in vivo
Procedure: 1 week after handling, mice were trained with two consecutive trials per day for 8-9 days 30 minutes after i.p. injection of 8581 or vehicle. In each trial, mice were given 60 s to find the platform. After each trial, mice were put on the platform for 15 s. On the day of probe trial (Day 3, Day 5, Day 7, and Day 9) 60 s of probe trial was performed after training. […] Two different measures of spatial learning (% search in quadrant (FIG. 16) and average proximity to the target platform (FIG. 17)) show similarly, that active pharmaceutical compounds used in present invention rescue spatial learning deficits of Nf1+/− mice (CO/veh (n=10), Nf1/veh (n=9), CO/8581 (n=10), and Nf1/8581 (n=11).
Effects of active pharmaceutical compounds used in present invention on the performance of Nf1+/− mice were tested under conditions in which the spatial learning of the mutants was indistinguishable from controls (less extinction due to lower number of probe trials). Mean percentage of time spent in each quadrant during a probe trial in plotted in FIG. 18. Average proximity to the target quadrant is plotted in FIG. 19. […] On probe trial 1 and 2 (days 5 and 7), all groups searched selectively in the target quadrant (p<0.01), and there were no differences between groups.

[3] = 8581 concentration in serum after i.p. injection; format: in vivo, mice; conditions: ip; for concentration at 0.5 h: 0.5 h after i.p. injection; for concentration at 3 h: 3 h after i.p. injection; for concentration at 7 h: 7 h after i.p. injection; for concentration at 24 h: 24 h after i.p. injection
Procedure: Table 5. 8581 concentration in serum (ng/ml) of Nf1+/− and control mice 0.5, 3, 7, and 24 hours after i.p. injection

[4] = TS mice, chronic administration
[5] = B16;129F1, mouse, 0.1 mg/kg, control mice
[6] = B16;129F1, mouse, 1 mg/kg, control mice

Structure (SMILES): FC(F)c1ncn2c1Cn1ncnc1-c1cc(Br)ccc1-2 [Compound 8581, 3-Bromo-10-difluoromethyl-9H-imidazo[1,5-a][1,2,4]triazolo[1,5-d][1,4]benzodiazepine]
- contextual conditioning, training for two consecutive days (Control mice (B16;129F1); control mice, 1 mg/kg i.p.): significant increase in contextual conditioning
- freezing at 24 hr after training (Control mice (B16;129F1); control mice, 3 mg/kg i.p., one training day): significantly enhanced freezing
- contextual fear conditioning dose response curve (Control mice (B16;129F1); control mice, 0.3, 1.0 and 3.0 mg/kg): dose-dependent increase in contextual fear conditioning
- number of GABAergic synapses (GAD+) in CO mice ([1]; CO mice, chronic treatment): non-significant tendency to increase
- density of proliferating (Ki67+) cells in hippocampus [1, 4]: completely restored the density of proliferating cells
- neuronal survival (DAPI+ cells, granular cell layer) [1, 4]: normalized
- number of GAD positive boutons in hippocampus ([1]; TS mice, chronic treatment): decreased dramatically
- performance in rotarod [2]: did not affect the performance
- performance of Nf1+/− mice under conditions that occlude their behavioral deficits (Nf1+/− mice; 1 mg/kg): does not affect the performance
- spatial learning deficits of Nf1+/− mice (Nf1+/− mice; Nf1+/− mice, 1 mg/kg i.p. 30 minutes before training, probe trials): rescued the spatial learning deficits
- concentration at 0.5 h [3, 5]: 9.45 ± 3.05 ng/mL
- concentration at 0.5 h [3, 6]: 271 ± 1 ng/mL
- concentration at 3 h [3, 5]: < 0.5 ng/mL
- concentration at 3 h [3, 6]: 11.9 ± 2.51 ng/mL
- concentration at 7 h [3, 5]: < 0.5 ng/mL
- concentration at 7 h [3, 6]: < 0.5 ng/mL
- concentration at 24 h [3, 5]: < 0.5 ng/mL
- concentration at 24 h [3, 6]: < 0.5 ng/mL
- concentration at 0.5 h ([3]; mouse, 0.1 mg/kg, Nf1+/− mice): 11 ± 1.73 ng/mL
- concentration at 0.5 h ([3]; mouse, 1 mg/kg, Nf1+/− mice): 192 ± 35 ng/mL
- concentration at 3 h ([3]; mouse, 0.1 mg/kg, Nf1+/− mice): < 0.5 ng/mL
- concentration at 3 h ([3]; mouse, 1 mg/kg, Nf1+/− mice): 8.95 ± 0.5 ng/mL
- concentration at 7 h ([3]; mouse, 0.1 mg/kg, Nf1+/− mice): < 0.5 ng/mL
- concentration at 7 h ([3]; mouse, 1 mg/kg, Nf1+/− mice): < 0.5 ng/mL
- concentration at 24 h ([3]; mouse, 0.1 mg/kg, Nf1+/− mice): < 0.5 ng/mL
- concentration at 24 h ([3]; mouse, 1 mg/kg, Nf1+/− mice): < 0.5 ng/mL
